pIC50: −log10 of the molar value.
Experiments:
Assay in all cases: cells
[1] = system: CaR-1; format: functional, cell-based, Homo sapiens; conditions: Homo sapiens, CaR-1;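 further: growth inhibition of human CaR-1 cancer cells, read out with a cell viability assay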
Description: SANGER: Inhibition of human CaR-1 cell growth in a cell viability assay.

[2] = system: D-502MG; format: functional, cell-based, Homo sapiens; conditions: Homo sapiens, D-502MG
Description: SANGER: Inhibition of human D-502MG cell growth in a cell viability assay.

[3] = system: DOK; format: functional, cell-based, Homo sapiens; conditions: Homo sapiens, DOK;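 further: cell viability assay read-out, values reflect inhibition of cell growth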
Description: SANGER: Inhibition of human DOK cell growth in a cell viability assay.

[4] = system: ESS-1; format: functional, cell-based, Homo sapiens; conditions: Homo sapiens, ESS-1;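 further: growth inhibition of human ESS-1 cells, read out by a cell viability assay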
Description: SANGER: Inhibition of human ESS-1 cell growth in a cell viability assay.

[5] = system: EW-18; format: functional, cell-based; conditions: Homo sapiens;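 further: growth inhibition of EW-18 cells, read out by a cell viability assay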
Description: SANGER: Inhibition of human EW-18 cell growth in a cell viability assay.

[6] = system: EW-3; format: functional, cell-based; conditions: Homo sapiens;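 further: cell viability assay read-out, IC50 reflects inhibition of growth of the EW-3 cells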
Description: SANGER: Inhibition of human EW-3 cell growth in a cell viability assay.

[7] = system: HCC1954; format: functional, cell-based, Homo sapiens; conditions: Homo sapiens, HCC1954;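 further: growth inhibition of human HCC1954 cells, read out with a cell viability assay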
Description: SANGER: Inhibition of human HCC1954 cell growth in a cell viability assay.

[8] = system: HCE-4; format: functional, cell-based, Homo sapiens; conditions: Homo sapiens, HCE-4;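 further: cell viability assay measuring inhibition of growth in the human HCE-4 cell line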
Description: SANGER: Inhibition of human HCE-4 cell growth in a cell viability assay.

[9] = system: HMV-2 cell line; format: functional, cell-based, Homo sapiens; conditions: Homo sapiens, HMV-2;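 further: growth inhibition of HMV-II cells, read out with a cell viability assay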
Description: SANGER: Inhibition of human HMV-II cell growth in a cell viability assay.

[10] = system: JEG-3; format: functional, cell-based, Homo sapiens; conditions: Homo sapiens, JEG-3;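 further: growth inhibition of human JEG-3 cells, read out with a cell viability assay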
Description: SANGER: Inhibition of human JEG-3 cell growth in a cell viability assay.

[11] = system: KARPAS-45; format: functional, cell-based; conditions: Homo sapiens;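 further: inhibition of cell line growth, read out through a viability assay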
Description: SANGER: Inhibition of human KARPAS-45 cell growth in a cell viability assay.

[12] = system: KE-37; format: functional, cell-based; conditions: Homo sapiens;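 further: growth inhibition of KE-37 cells, read out with a cell viability assay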
[13] = system: KLE; format: functional, cell-based, Homo sapiens; conditions: Homo sapiens, KLE;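 further: growth inhibition of human KLE cells, read out with a cell viability assay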
Description: SANGER: Inhibition of human KLE cell growth in a cell viability assay.

[14] = system: KS-1; format: functional, cell-based, Homo sapiens; conditions: Homo sapiens, KS-1;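 further: growth inhibition of KS-1 cells, read out with a cell viability assay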
[15] = system: KU812 cell line; format: functional, cell-based; conditions: Homo sapiens;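 further: growth inhibition of KU812 cells, read out with a cell viability assay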
Description: SANGER: Inhibition of human KU812 cell growth in a cell viability assay.

[16] = system: KYSE-180; format: functional, cell-based, Homo sapiens; conditions: Homo sapiens, KYSE-180;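 further: growth inhibition of KYSE-180 cells, read out with a cell viability assay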
Description: SANGER: Inhibition of human KYSE-180 cell growth in a cell viability assay.

[17] = system: LoVo; format: functional, cell-based; conditions: Homo sapiens;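 further: growth inhibition of human LoVo cells, read out with a cell viability assay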
Description: SANGER: Inhibition of human LoVo cell growth in a cell viability assay.

[18] = system: M059J; format: functional, cell-based, Homo sapiens; conditions: Homo sapiens, M059J;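 further: growth inhibition of M059J cells, read out with a cell viability assay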
Description: SANGER: Inhibition of human M059J cell growth in a cell viability assay.

[19] = system: M14; format: functional, cell-based, Homo sapiens; conditions: Homo sapiens, M14;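 further: growth inhibition of M14 cells, read out with a cell viability assay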
Description: SANGER: Inhibition of human M14 cell growth in a cell viability assay.

[20] = system: MOLT-16; format: functional, cell-based; conditions: Homo sapiens;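 further: growth inhibition of human MOLT-16 cells, read out with a cell viability assay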
Description: SANGER: Inhibition of human MOLT-16 cell growth in a cell viability assay.

[21] = system: MeWo; format: functional, cell-based, Homo sapiens; conditions: Homo sapiens, MeWo;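 further: growth inhibition of MeWo cells, determined by a cell viability readout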
Description: SANGER: Inhibition of human Mewo cell growth in a cell viability assay.

[22] = system: NCI-H1355; format: functional, cell-based, Homo sapiens; conditions: Homo sapiens, NCI-H1355;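 further: growth inhibition of human NCI-H1355 cells, read out by a cell viability assay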
Description: SANGER: Inhibition of human NCI-H1355 cell growth in a cell viability assay.

[23] = system: NCI-H1755; format: functional, cell-based, Homo sapiens; conditions: Homo sapiens, NCI-H1755;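 further: cell viability readout used to measure growth inhibition of NCI-H1755 cells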
Description: SANGER: Inhibition of human NCI-H1755 cell growth in a cell viability assay.

[24] = system: NCI-H292; format: functional, cell-based, Homo sapiens; conditions: Homo sapiens, NCI-H292;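 further: growth inhibition of NCI-H292 cells, read out with a cell viability assay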
Description: SANGER: Inhibition of human NCI-H292 cell growth in a cell viability assay.

[25] = system: NCI-H69; format: functional, cell-based; conditions: Homo sapiens;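 further: growth inhibition of the cell line, read out with a cell viability assay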
Description: SANGER: Inhibition of human NCI-H69 cell growth in a cell viability assay.

[26] = system: NCI-H82; format: functional, cell-based; conditions: Homo sapiens;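 further: growth inhibition of NCI-H82 cells, measured with a cell viability readout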
Description: SANGER: Inhibition of human NCI-H82 cell growth in a cell viability assay.

[27] = system: NMC-G1; format: functional, cell-based, Homo sapiens; conditions: Homo sapiens, NMC-G1;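 further: growth inhibition of the NMC-G1 cell line, measured with a cell viability read-out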
Description: SANGER: Inhibition of human NMC-G1 cell growth in a cell viability assay.

[28] = system: OCUB-M; format: functional, cell-based, Homo sapiens; conditions: Homo sapiens, OCUB-M;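 further: growth inhibition of the cancer cell line, read out through a cell viability assay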
Description: SANGER: Inhibition of human OCUB-M cell growth in a cell viability assay.

[29] = system: OVCAR-4; format: functional, cell-based, Homo sapiens; conditions: Homo sapiens, OVCAR-4;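 further: growth inhibition of human OVCAR-4 cells, measured with a cell viability assay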
Description: SANGER: Inhibition of human OVCAR-4 cell growth in a cell viability assay.

[30] = system: P30-OHK; format: functional, cell-based; conditions: Homo sapiens;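 further: growth inhibition of the P30-OHK cell line, read out with a cell viability assay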
Description: SANGER: Inhibition of human P30-OHK cell growth in a cell viability assay.

[31] = system: PC-3; format: functional, cell-based, Homo sapiens; conditions: Homo sapiens, PC-3;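 further: cell viability assay measuring growth inhibition of PC-3 cells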
Description: SANGER: Inhibition of human PC-3 cell growth in a cell viability assay.

[32] = system: RKO; format: functional, cell-based, Homo sapiens; conditions: Homo sapiens, RKO;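 further: growth inhibition of human RKO cells, read out with a cell viability assay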
Description: SANGER: Inhibition of human RKO cell growth in a cell viability assay.

[33] = system: RPMI-8866; format: functional, cell-based; conditions: Homo sapiens
Description: SANGER: Inhibition of human RPMI-8866 cell growth in a cell viability assay.

[34] = system: S-117; format: functional, cell-based, Homo sapiens; conditions: Homo sapiens, S-117
Description: SANGER: Inhibition of human S-117 cell growth in a cell viability assay.

[35] = system: SCC-9; format: functional, cell-based, Homo sapiens; conditions: Homo sapiens, SCC-9;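 further: Read-out is a cell viability assay, with values giving inhibition of cell growth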
Description: SANGER: Inhibition of human SCC-9 cell growth in a cell viability assay.

[36] = system: SF-126; format: functional, cell-based, Homo sapiens; conditions: Homo sapiens, SF-126;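 further: growth inhibition of human SF126 cells, read out with a cell viability assay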
Description: SANGER: Inhibition of human SF126 cell growth in a cell viability assay.

[37] = system: SK-LU-1; format: functional, cell-based, Homo sapiens; conditions: Homo sapiens, SK-LU-1;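 further: cell viability assay measuring growth inhibition of human SK-LU-1 cells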
Description: SANGER: Inhibition of human SK-LU-1 cell growth in a cell viability assay.

[38] = system: SW-620; format: functional, cell-based, Homo sapiens; conditions: Homo sapiens, SW-620;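 further: growth inhibition of human SW-620 cells, measured by a cell viability assay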
Description: SANGER: Inhibition of human SW620 cell growth in a cell viability assay.

[39] = system: SW872; format: functional, cell-based, Homo sapiens; conditions: Homo sapiens, SW872;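 further: growth inhibition of SW872 cells, read out by a viability assay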
Description: SANGER: Inhibition of human SW872 cell growth in a cell viability assay.

[40] = system: SiHa; format: functional, cell-based, Homo sapiens; conditions: Homo sapiens, SiHa;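 further: Viability-based readout of growth inhibition in SiHa cells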
Description: SANGER: Inhibition of human SiHa cell growth in a cell viability assay.

[41] = system: 786-0; format: functional, cell-based, Homo sapiens; conditions: Homo sapiens
Description: SANGER: Inhibition of human 786-0 cell growth in a cell viability assay.

[42] = system: A3-KAW; format: functional, cell-based; conditions: Homo sapiens;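 further: growth inhibition of human A3-KAW cells, read out with a cell viability assay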
Description: SANGER: Inhibition of human A3-KAW cell growth in a cell viability assay.

[43] = system: A388; format: functional, cell-based, Homo sapiens; conditions: Homo sapiens, A388;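 further: growth inhibition of human A388 cells, read out with a cell viability assay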
Description: SANGER: Inhibition of human A388 cell growth in a cell viability assay.

[44] = system: AN3-CA; format: functional, cell-based; conditions: Homo sapiens;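 further: growth inhibition of human AN3-CA cells measured by a cell viability assay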
Description: SANGER: Inhibition of human AN3-CA cell growth in a cell viability assay.

[45] = system: AU565; format: functional, cell-based, Homo sapiens; conditions: Homo sapiens, AU565;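 further: cell viability assay measuring growth inhibition of human AU565 cells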
Description: SANGER: Inhibition of human AU565 cell growth in a cell viability assay.

[46] = system: BFTC-905; format: functional, cell-based, Homo sapiens; conditions: Homo sapiens, BFTC-905
Description: SANGER: Inhibition of human BFTC-905 cell growth in a cell viability assay.

[47] = system: C2BBe1; format: functional, cell-based, Homo sapiens; conditions: Homo sapiens, C2BBe1;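 further: growth inhibition of C2BBe1 cells, read out through a viability assay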
Description: SANGER: Inhibition of human C2BBe1 cell growth in a cell viability assay.

[48] = system: C8166; format: functional, cell-based; conditions: Homo sapiens;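 further: growth inhibition of human C8166 cells measured by a cell viability assay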
Description: SANGER: Inhibition of human C8166 cell growth in a cell viability assay.

[49] = system: CAL-51; format: functional, cell-based, Homo sapiens; conditions: Homo sapiens, CAL-51;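 further: human CAL-51 cell line, growth inhibition read out via a cell viability assay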
Description: SANGER: Inhibition of human CAL-51 cell growth in a cell viability assay.

[50] = system: U2OS; format: functional, cell-based, Homo sapiens, U-2-OS; conditions: Homo sapiens, U2OS;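 further: growth inhibition of human U-2-OS cells, determined with a cell viability assay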
Description: SANGER: Inhibition of human U-2-OS cell growth in a cell viability assay.

[51] = system: VM-CUB-1; format: functional, cell-based; conditions: Homo sapiens;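 further: cell viability assay measuring growth inhibition of the human VM-CUB-1 cell line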
Description: SANGER: Inhibition of human VM-CUB-1 cell growth in a cell viability assay.

[52] = system: CAPAN-1; format: functional, cell-based, Homo sapiens; conditions: Homo sapiens, CAPAN-1;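 further: growth suppression of CAPAN-1 cells, read out by a cell viability assay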
Description: SANGER: Inhibition of human CAPAN-1 cell growth in a cell viability assay.

[53] = system: COLO-668; format: functional, cell-based, Homo sapiens; conditions: Homo sapiens, COLO-668
Description: SANGER: Inhibition of human COLO-668 cell growth in a cell viability assay.

CN(C)C/C=C/C(=O)Nc1cc2c(Nc3ccc(F)c(Cl)c3)ncnc2cc1O[C@H]1CCOC1 [AFATINIB]
pIC50 [1]: < 6.30 | pIC50 [2]: < 6.30 | pIC50 [3]: 7.50 | pIC50 [4]: < 6.30 | pIC50 [5]: < 6.30 | pIC50 [6]: < 6.30 | pIC50 [7]: < 6.30 | pIC50 [8]: < 6.30 | pIC50 [9]: < 6.30 | pIC50 [10]: < 6.30 | pIC50 [11]: 7.78 | pIC50 [12]: < 6.30 | pIC50 [13]: < 6.30 | pIC50 [14]: < 6.30 | pIC50 [15]: 6.81 | pIC50 [16]: 6.41 | pIC50 [17]: < 6.30 | pIC50 [18]: < 6.30 | pIC50 [19]: < 6.30 | pIC50 [20]: < 6.30 | pIC50 [21]: < 6.30 | pIC50 [22]: < 6.30 | pIC50 [23]: < 6.30 | pIC50 [24]: 7.22 | pIC50 [25]: 6.67 | pIC50 [26]: < 6.30 | pIC50 [27]: < 6.30 | pIC50 [28]: < 6.30 | pIC50 [29]: < 6.30 | pIC50 [30]: < 6.30 | pIC50 [31]: < 6.30 | pIC50 [32]: < 6.30 | pIC50 [33]: < 6.30 | pIC50 [34]: < 6.30 | pIC50 [35]: < 6.30 | pIC50 [36]: < 6.30 | pIC50 [37]: < 6.30 | pIC50 [38]: < 6.30 | pIC50 [39]: < 6.30 | pIC50 [40]: < 6.30 | pIC50 [41]: < 6.30 | pIC50 [42]: < 6.30 | pIC50 [43]: 6.43 | pIC50 [44]: < 6.30 | pIC50 [45]: 7.07 | pIC50 [46]: < 6.30 | pIC50 [47]: < 6.30 | pIC50 [48]: < 6.30 | pIC50 [49]: < 6.30 | pIC50 [50]: < 6.30 | pIC50 [51]: < 6.30 | pIC50 [52]: < 6.30 | pIC50 [53]: < 6.30

O=C(NOCC1CC1)c1ccc(F)c(F)c1Nc1ccc(I)cc1Cl [CI-1040]
pIC50 [1]: < 5.00 | pIC50 [2]: < 5.00 | pIC50 [3]: 5.63 | pIC50 [4]: < 5.00 | pIC50 [5]: < 5.00 | pIC50 [6]: < 5.00 | pIC50 [7]: < 5.00 | pIC50 [8]: < 5.00 | pIC50 [9]: 6.19 | pIC50 [10]: < 5.00 | pIC50 [11]: < 5.00 | pIC50 [12]: < 5.00 | pIC50 [13]: < 5.00 | pIC50 [14]: < 5.00 | pIC50 [15]: 6.34 | pIC50 [16]: < 5.00 | pIC50 [17]: 5.83 | pIC50 [18]: < 5.00 | pIC50 [19]: 6.81 | pIC50 [20]: < 5.00 | pIC50 [21]: 5.92 | pIC50 [22]: 5.12 | pIC50 [23]: < 5.00 | pIC50 [24]: 5.73 | pIC50 [25]: < 5.00 | pIC50 [26]: < 5.00 | pIC50 [27]: < 5.00 | pIC50 [28]: < 5.00 | pIC50 [29]: < 5.00 | pIC50 [30]: 5.02 | pIC50 [31]: < 5.00 | pIC50 [32]: 5.05 | pIC50 [33]: 5.21 | pIC50 [34]: < 5.00 | pIC50 [35]: < 5.00 | pIC50 [36]: < 5.00 | pIC50 [37]: 5.43 | pIC50 [38]: 5.94 | pIC50 [39]: < 5.00 | pIC50 [40]: < 5.00 | pIC50 [41]: 5.49 | pIC50 [42]: < 5.00 | pIC50 [43]: < 5.00 | pIC50 [44]: 5.17 | pIC50 [45]: < 5.00 | pIC50 [46]: 5.55 | pIC50 [47]: 6.09 | pIC50 [48]: < 5.00 | pIC50 [49]: < 5.00 | pIC50 [50]: 5.44 | pIC50 [51]: < 5.00 | pIC50 [52]: < 5.00 | pIC50 [53]: < 5.00

Nc1ccn([C@@H]2O[C@H](CO)[C@@H](O)[C@@H]2O)c(=O)n1 [CYTARABINE]
pIC50 [1]: < 5.70 | pIC50 [2]: < 5.70 | pIC50 [3]: 6.04 | pIC50 [4]: < 5.70 | pIC50 [5]: < 5.70 | pIC50 [6]: 6.08 | pIC50 [7]: < 5.70 | pIC50 [8]: 6.56 | pIC50 [9]: 6.91 | pIC50 [10]: 6.37 | pIC50 [11]: < 5.70 | pIC50 [12]: 6.96 | pIC50 [13]: < 5.70 | pIC50 [14]: < 5.70 | pIC50 [15]: < 5.70 | pIC50 [16]: 6.25 | pIC50 [17]: 6.17 | pIC50 [18]: 5.74 | pIC50 [19]: 6.20 | pIC50 [20]: 7.44 | pIC50 [21]: 5.91 | pIC50 [22]: 6.26 | pIC50 [23]: < 5.70 | pIC50 [24]: 6.94 | pIC50 [25]: < 5.70 | pIC50 [26]: < 5.70 | pIC50 [27]: 5.71 | pIC50 [28]: < 5.70 | pIC50 [29]: < 5.70 | pIC50 [30]: 7.25 | pIC50 [31]: 5.89 | pIC50 [32]: 6.22 | pIC50 [33]: 6.13 | pIC50 [34]: < 5.70 | pIC50 [35]: < 5.70 | pIC50 [36]: 6.16 | pIC50 [37]: 5.88 | pIC50 [38]: 6.46 | pIC50 [39]: < 5.70 | pIC50 [40]: 6.07 | pIC50 [41]: 6.17 | pIC50 [42]: 6.07 | pIC50 [43]: 6.13 | pIC50 [44]: 5.74 | pIC50 [45]: < 5.70 | pIC50 [46]: 6.97 | pIC50 [47]: 6.78 | pIC50 [48]: < 5.70 | pIC50 [49]: 6.24 | pIC50 [50]: 6.46 | pIC50 [51]: 6.27 | pIC50 [52]: < 5.70 | pIC50 [53]: 6.09

Reference: ChEMBL document CHEMBL1201861, “Genomics of Drug Sensitity in Cancer screening data, Wellcome Trust Sanger Institute”
